The record followed here is patent US20250144094A1 (Erasca, Inc., priority 2021, published 2025).

The test has as its target Recombinant human ULK1 (1-649) (Homo sapiens (Human), UniProt O75385). Kind of test: ULK1 ADP Glo kinase activity assay, new method (ULKtide peptide substrate). The settings on record: 25° C., 40 minutes, read-out: ULK1 biochemical IC50. On the procedure: Recombinant human ULK1 (1-649) protein expressed in Sf9 insect cells was obtained from SignalChem (Vancouver, BC), catalog #U01-11G. Active kinase was purified via N-terminal GST tag to >85% purity.
ADP GLO Kinase Assay Reagents were obtained from Promega Corp (Madison, WI), catalog #V9104.
Synthetic peptide substrate (ULKtide) with the amino acid sequence YANWLAASIYLDGKKK was obtained from ThermoFisher Scientific USA.
ULK1 inhibitor potency was determined using the luminescent ADP Glo Kinase Assay (Promega), a universal ADP detection system that measures kinase activity by quantifying the amount of ADP produced during a kinase reaction. ULK1 kinase reactions are performed in a standard 96-well microplate (20 μL reaction volume) at 25° C. for 40 minutes in the presence or absence of the test compound (12-point dilution series starting at 10 μM). Addition of peptide substrate and ATP initiates the kinase reaction.
The standard ADP Glo assay is performed in two steps. In step one, following the kinase reaction, an equal volume of ADP-Glo™ Reagent (20 μL) is added to terminate the kinase reaction and deplete the remaining ATP. In the second step, the Kinase Detection Reagent (10 μL) is added to simultaneously convert ADP to ATP and allow the newly synthesized ATP to be measured using a luciferase/luciferin reaction. Step two of the ADP Glo assay is performed in a white 384-well plate (20 μL final volume). Thirty minutes after the addition of the Detection reagent, light generated from the luciferase reaction is measured (1 second exposure) using a microplate compatible luminometer (CLARIOstar, BMG Labtech).
Inhibition of ULK1 kinase activity is determined for each test compound by comparison to DMSO only control wells. Inhibitor IC50 was calculated by plotting the change in luminescence after 30 minutes (response) versus inhibitor concentration (in log molar) then applying the four-parameter variable slope curve fit (GraphPad Prism). Inhibition of ULK1 in biochemical assay is found in Table 4.
For orientation: ADP-Glo first removes unused ATP, then detects ADP through luciferase.

SMILES strings stand for the structures.

Sequence of Recombinant human ULK1 (1-649) (O75385 1-649): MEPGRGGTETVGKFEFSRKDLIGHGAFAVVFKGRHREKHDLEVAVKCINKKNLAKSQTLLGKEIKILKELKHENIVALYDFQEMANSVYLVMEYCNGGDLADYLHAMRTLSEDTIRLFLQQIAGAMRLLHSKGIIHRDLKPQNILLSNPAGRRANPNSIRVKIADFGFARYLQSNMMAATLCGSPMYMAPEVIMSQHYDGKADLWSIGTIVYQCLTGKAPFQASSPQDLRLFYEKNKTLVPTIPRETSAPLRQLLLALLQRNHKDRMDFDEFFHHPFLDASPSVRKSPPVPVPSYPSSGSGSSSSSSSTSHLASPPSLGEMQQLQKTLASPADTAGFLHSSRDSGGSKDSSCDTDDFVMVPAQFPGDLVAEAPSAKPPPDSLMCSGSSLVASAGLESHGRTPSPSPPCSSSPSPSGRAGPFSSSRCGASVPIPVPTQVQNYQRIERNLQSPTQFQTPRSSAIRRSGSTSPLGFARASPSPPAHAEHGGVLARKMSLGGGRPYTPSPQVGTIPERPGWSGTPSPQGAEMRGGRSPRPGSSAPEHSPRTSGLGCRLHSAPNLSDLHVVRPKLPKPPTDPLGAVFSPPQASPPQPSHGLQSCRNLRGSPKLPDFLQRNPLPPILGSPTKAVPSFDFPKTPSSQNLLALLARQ

Turning to `Cc1nn(C2CCN(C)CC2)cc1Nc1ncc(C(F)(F)F)c(-c2cc3c(s2)C(=O)NCCS3(=O)=O)n1` [Example 182, 7-(2-((3-methyl-1-(1-methylpiperidin-4-yl)-1H-pyrazol-4-yl)amino)-5-(trifluoromethyl)pyrimidin-4-yl)-3,4-dihydrothieno[2,3-f][1,4]thiazepin-5(2H)-one 1,1-dioxide], the IC50 (as a rule, the midpoint of a concentration-inhibition curve) was more than 100 nM. The value for `Cc1nn(C2CCN(C)CC2)cc1Nc1ncc(C(F)(F)F)c(-c2cc3c(s2)C(=O)N(C)CCS3(=O)=O)n1` [Example 183, 4-methyl-7-(2-((3-methyl-1-(1-methylpiperidin-4-yl)-1H-pyrazol-4-yl)amino)-5-(trifluoromethyl)pyrimidin-4-yl)-3,4-dihydrothieno[2,3-f][1,4]thiazepin-5(2H)-one 1,1-dioxide] was more than 100 nM; that for `Cc1cc2c(cc1Nc1ncc(C(F)(F)F)c(-c3cc4c(s3)C(=O)N(C)CCS4(=O)=O)n1)CCNC2` [Example 184, 4-methyl-7-(2-((7-methyl-1,2,3,4-tetrahydroisoquinolin-6-yl)amino)-5-(trifluoromethyl)pyrimidin-4-yl)-3,4-dihydrothieno[2,3-f][1,4]thiazepin-5(2H)-one 1,1-dioxide] was not above 5 nM; that for `CCN1CCc2cc(Nc3ncc(C(F)(F)F)c(-c4cc5c(s4)C(=O)N(C)CCS5(=O)=O)n3)c(C)cc2C1` [Example 185, 7-(2-((2-ethyl-7-methyl-1,2,3,4-tetrahydroisoquinolin-6-yl)amino)-5-(trifluoromethyl)pyrimidin-4-yl)-4-methyl-3,4-dihydrothieno[2,3-f][1,4]thiazepin-5(2H)-one 1,1-dioxide] was not above 5 nM. For the compound `CCN1CCc2cc(Nc3ncc(C(F)(F)F)c(-c4cc5c(s4)C(=O)N(C)CCS5(=O)=O)n3)c(C3CC3)cc2C1` [Example 186, 7-(2-((7-cyclopropyl-2-ethyl-1,2,3,4-tetrahydroisoquinolin-6-yl)amino)-5-(trifluoromethyl)pyrimidin-4-yl)-4-methyl-3,4-dihydrothieno[2,3-f][1,4]thiazepin-5(2H)-one 1,1-dioxide], the IC50 is not above 5 nM. The value for `Cc1nn(CCN(C)C)cc1Nc1ncc(C(F)(F)F)c(-c2cc3c(s2)C(=O)N(C)CCS3(=O)=O)n1` [Example 187, 7-(2-((1-(2-(dimethylamino)ethyl)-3-methyl-1H-pyrazol-4-yl)amino)-5-(trifluoromethyl)pyrimidin-4-yl)-4-methyl-3,4-dihydrothieno[2,3-f][1,4]thiazepin-5(2H)-one 1,1-dioxide] was not above 5 nM; that for `CCN1CCc2cc(Nc3ncc(C(F)(F)F)c(-c4cc5c(s4)C(=O)N(C)CCS5(=O)=O)n3)c(SC)cc2C1` [Example 188, 7-(2-((2-ethyl-7-(methylthio)-1,2,3,4-tetrahydroisoquinolin-6-yl)amino)-5-(trifluoromethyl)pyrimidin-4-yl)-4-methyl-3,4-dihydrothieno[2,3-f][1,4]thiazepin-5(2H)-one 1,1-dioxide] was not above 5 nM; that for `CN1CCS(=O)(=O)c2cc(-c3nc(Nc4cc(N5CCNCC5)ccc4Cl)ncc3C(F)(F)F)sc2C1=O` [Example 189, 7-(2-((2-chloro-5-(piperazin-1-yl)phenyl)amino)-5-(trifluoromethyl)pyrimidin-4-yl)-4-methyl-3,4-dihydrothieno[2,3-f][1,4]thiazepin-5(2H)-one 1,1-dioxide] was 50 to 100 nM. As for `CCN1Cc2cc(F)c(Nc3ncc(C(F)(F)F)c(-c4cc5c(s4)C(=O)N(C)CCS5(=O)=O)n3)cc2C1` [Example 190, 7-(2-((2-ethyl-6-fluoroisoindolin-5-yl)amino)-5-(trifluoromethyl)pyrimidin-4-yl)-4-methyl-3,4-dihydrothieno[2,3-f][1,4]thiazepin-5(2H)-one 1,1-dioxide], the figure is not above 5 nM.

On to `CCN1Cc2ccc(Nc3ncc(C(F)(F)F)c(-c4cc5c(s4)C(=O)N(C)CCS5(=O)=O)n3)c(C3CC3)c2C1` [Example 191, 7-(2-((4-cyclopropyl-2-ethylisoindolin-5-yl)amino)-5-(trifluoromethyl)pyrimidin-4-yl)-4-methyl-3,4-dihydrothieno[2,3-f][1,4]thiazepin-5(2H)-one 1,1-dioxide], for which the IC50 is 50 to 100 nM. The value for `CCN1Cc2cc(C)c(Nc3ncc(C(F)(F)F)c(-c4cc5c(s4)C(=O)N(C)CCS5(=O)=O)n3)cc2C1` [Example 192, 7-(2-((2-ethyl-6-methylisoindolin-5-yl)amino)-5-(trifluoromethyl)pyrimidin-4-yl)-4-methyl-3,4-dihydrothieno[2,3-f][1,4]thiazepin-5(2H)-one 1,1-dioxide] was not above 5 nM. Consider `CN1CCS(=O)(=O)c2cc(-c3nc(Nc4ccc(N5CCNCC5)cc4Cl)ncc3C(F)(F)F)sc2C1=O` [Example 193, 7-(2-((2-chloro-4-(piperazin-1-yl)phenyl)amino)-5-(trifluoromethyl)pyrimidin-4-yl)-4-methyl-3,4-dihydrothieno[2,3-f][1,4]thiazepin-5(2H)-one 1,1-dioxide], for which the IC50 is not above 5 nM. The value for `CCN1CCN(c2ccc(Nc3ncc(C(F)(F)F)c(-c4cc5c(s4)C(=O)N(C)CCS5(=O)=O)n3)c(Cl)c2)CC1` [Example 195, 7-(2-((2-chloro-4-(4-ethylpiperazin-1-yl)phenyl)amino)-5-(trifluoromethyl)pyrimidin-4-yl)-4-methyl-3,4-dihydrothieno[2,3-f][1,4]thiazepin-5(2H)-one 1,1-dioxide] was not above 5 nM; that for `CCc1cc(N2CCN(C)CC2)ccc1Nc1ncc(C(F)(F)F)c(-c2cc3c(s2)C(=O)N(C)CCS3(=O)=O)n1` [Example 196, 7-(2-((2-ethyl-4-(4-methylpiperazin-1-yl)phenyl)amino)-5-(trifluoromethyl)pyrimidin-4-yl)-4-methyl-3,4-dihydrothieno[2,3-f][1,4]thiazepin-5(2H)-one 1,1-dioxide] was not above 5 nM. Regarding `CCc1cc(N2CCN(CC)CC2)ccc1Nc1ncc(C(F)(F)F)c(-c2cc3c(s2)C(=O)N(C)CCS3(=O)=O)n1` [Example 197, 7-(2-((2-ethyl-4-(4-ethylpiperazin-1-yl)phenyl)amino)-5-(trifluoromethyl)pyrimidin-4-yl)-4-methyl-3,4-dihydrothieno[2,3-f][1,4]thiazepin-5(2H)-one 1,1-dioxide], the IC50 is not above 5 nM. The value for `CCN1CCS(=O)(=O)c2cc(-c3nc(Nc4cc5c(cc4C4CC4)CNCC5)ncc3C(F)(F)F)sc2C1=O` [Example 198, 7-(2-((7-cyclopropyl-1,2,3,4-tetrahydroisoquinolin-6-yl)amino)-5-(trifluoromethyl)pyrimidin-4-yl)-4-ethyl-3,4-dihydrothieno[2,3-f][1,4]thiazepin-5(2H)-one 1,1-dioxide] was not above 5 nM; that for `CCN1CCc2cc(Nc3ncc(C(F)(F)F)c(-c4cc5c(s4)C(=O)N(CC)CCS5(=O)=O)n3)c(C3CC3)cc2C1` [Example 199, 7-(2-((7-cyclopropyl-2-ethyl-1,2,3,4-tetrahydroisoquinolin-6-yl)amino)-5-(trifluoromethyl)pyrimidin-4-yl)-4-ethyl-3,4-dihydrothieno[2,3-f][1,4]thiazepin-5(2H)-one 1,1-dioxide] was not above 5 nM.
